According to patent US20210063413A1, “DENDRITIC CELL POTENCY ASSAY” (MEDIGENE IMMUNOTHERAPIES GMBH, priority 2017, published 2021):

System: dendritic cells
Assay: IL-10/IL-12 secretion of stimulated dendritic cells (ELISA / ELISPOT) compared with the conventional Signal 3 Assay
Type: cell-based, human
Settings: especially immature DCs (iDCs) and Jonuleit maturated DCs; FIG. 4 ELISA, FIG. 5 ELISPOT
Protocol: Monocytes are isolated with adherent isolation followed by dendritic cell generation for 3 days using IL-4 and GMSCF. Afterwards dendritic cells were maturated with MDG cocktail and IL-4 and GMCSF for 24 h. In case of Jonuleit cocktails cells were incubated for 6 days using IL-4 and GMSCF. Then cells where incubated with the Jonuleit cocktail (and IL-4 and GMCSF) for 24 h. For all assays, frozen dendritic cells were used thawed the day before the assay and incubated in DC medium until assay start. Stimulation is carried out for 24 h in a 96 well plate. Therefore, 11,000 dendritic cells were seeded per well. 1.1 μl CD40L in 110 μl DC Medium (VLE RPMI 1640 with 1.5% human serum) 1 μg/ml LPS and R848 were added.
Elisa assay was performed according to the protocols of the human IL-10, IL12p70 respectively, DuoSet ELISA-Kit (R&D Systems, Inc, Minneapolis, USA).
The IL-10/IL-12 Elispot assay was carried out according to the protocol of the Human IL-10/IL-12 Double-Color ELISPOT kit of (C.T.L. Cellular technology Limited, Cleaveland, USA)

SMILES: CCOCc1nc2c(N)nc3ccccc3c2n1CC(C)(C)O [R848, 4-amino-2-ethoxymethyl-α,α-dimethyl-1H-imidazol[4,5-c]quinoline-1-ethanol]
- IL-10 secretion with R848 as costimulatory reagent added to CD40L: necessary as a costimulatory reagent for optimal IL-10 secretion
